Source: patent US20150148422A1, “METHOD FOR […] AND METHOD FOR CLEANING SURFACES” (JSK Capital, LLC, priority 2012, published 2015)
Where two headings read alike, the source gives them in different places.

What was measured:
Pseudomonas aeruginosa = assay: USP <51> antimicrobial effectiveness (challenge) test, P. aeruginosa; assay type: cell-based; conditions: for Log P. aeruginosa: initial inoculum 2.9 × 10^5 cfu/mL = 5.46; for Log Change (P. aeruginosa), decrease in log 10 of organism from initial spike: initial log 5.46
Description: (§1) See Antimicrobial Test Laboratories description of USP 51 Test.

[1] = tested on: Escherichia coli (ATCC 8739); assay: USP <51> antimicrobial effectiveness (challenge) test, E. coli; assay type: cell-based; conditions: for Log E. coli: initial inoculum 5.0 × 10^5 cfu/mL = 5.70; for Log Change (E. coli), decrease in log 10 of organism from initial spike: initial log 5.70
Description: as §1

[2] = tested on: Candida albicans (ATCC 10231); assay: USP <51> antimicrobial effectiveness (challenge) test, C. albicans; assay type: cell-based; conditions: for Log C albicans: initial inoculum 9.4 × 10^5 cfu/mL = 5.97; for Log Change (C albicans), decrease in log 10 of organism from initial spike: initial log 5.97
Description: as §1

[3] = tested on: Aspergillus brasiliensis (ATCC 16404); assay: USP <51> antimicrobial effectiveness (challenge) test, A. brasiliensis; assay type: cell-based; conditions: for Log A brasiliensis: initial inoculum 2.6 × 10^5 cfu/mL = 5.41; for Log Change (A brasiliensis), decrease in log 10 of organism from initial spike: initial log 5.41
Description: as §1

[4] = tested on: Staphylococcus aureus (ATCC 6538P); conditions: initial log 5.34
Description: USP 51 challenges (inoculates) a formula with 5 different microorganisms, separately. Three bacteria and two fungal strains are used for each USP 51 test. Test microorganisms are grown in liquid or on solid medium, depending on the microorganism. Microorganisms used for a USP 51 test include: 1) Candida albicans (a yeast which is a form of fungus), 2) Aspergillus brasiliensis (a filamentous mold and also a fungus), 3) Escherichia coli (a bacterium better known as “E. coli”), 4) Pseudomonas aeruginosa (a bacterium that is problematic industrially), and 5) Staphylococcus aureus (a bacterium known as “Staph”).
The test microorganisms are either harvested by centrifugation from broth culture or by washing surface growth from a solid medium into a sterile vessel. The concentrations of test microorganisms are standardized by re-suspending harvested microorganisms in sterile saline to yield ˜1×10̂8 CFU/ml. […] A recovery analysis is performed to verify that microorganisms present in a sample can be adequately recovered and enumerated using the chosen dilution and plating scheme. A sufficient volume of test product (typically 10 ml) is distributed into each of 5 separate containers, and each container is inoculated with a separate test microorganism (mentioned above). The initial concentration of viable microorganisms in the test product is determined by standard dilution and plate count methods. […] The microorganism concentration at each interval is compared to the initial concentration, and then preservative effectiveness is determined based upon USP guidelines.
Here, a USP 51 test was conducted with the following parameters. For preparatory method suitability, validated recovery of organisms using TSB+IAA broth.

urea sulfate
>*4.97 log 10: Log Change (C albicans), decrease in log 10 of organism from initial spike ([2]; Day 1) | Log Change (C albicans), decrease in log 10 of organism from initial spike ([2]; Day 7) | Log Change (C albicans), decrease in log 10 of organism from initial spike ([2]; Day 14) | Log Change (C albicans), decrease in log 10 of organism from initial spike ([2]; Day 28) | Log Change (A brasiliensis), decrease in log 10 of organism from initial spike ([3]; Day 1) | Log Change (A brasiliensis), decrease in log 10 of organism from initial spike ([3]; Day 7) | Log Change (A brasiliensis), decrease in log 10 of organism from initial spike ([3]; Day 14) | Log Change (A brasiliensis), decrease in log 10 of organism from initial spike ([3]; Day 28)
no measurable change: change in the amount of Pseudomonas aeruginosa (Pseudomonas aeruginosa; after a month) | change in the amount of Escherichia coli ([1]; after a month) | change in the amount of Candida albicans ([2]; after a month) | change in the amount of Aspergillus brasiliensis ([3]; after a month)
<1 Log: Log P. aeruginosa (Pseudomonas aeruginosa; Day 1) | Log P. aeruginosa (Pseudomonas aeruginosa; Day 7) | Log P. aeruginosa (Pseudomonas aeruginosa; Day 14) | Log P. aeruginosa (Pseudomonas aeruginosa; Day 28) | Log E. coli ([1]; Day 1) | Log E. coli ([1]; Day 7) | Log E. coli ([1]; Day 14) | Log E. coli ([1]; Day 28) | Log C albicans ([2]; Day 1) | Log C albicans ([2]; Day 7) | Log C albicans ([2]; Day 14) | Log C albicans ([2]; Day 28) | Log A brasiliensis ([3]; Day 1) | Log A brasiliensis ([3]; Day 7) | Log A brasiliensis ([3]; Day 14) | Log A brasiliensis ([3]; Day 28)
>*4.70 log 10: Log Change (E. coli), decrease in log 10 of organism from initial spike ([1]; Day 1) | Log Change (E. coli), decrease in log 10 of organism from initial spike ([1]; Day 7) | Log Change (E. coli), decrease in log 10 of organism from initial spike ([1]; Day 14) | Log Change (E. coli), decrease in log 10 of organism from initial spike ([1]; Day 28)
>*4.46 log 10: Log Change (P. aeruginosa), decrease in log 10 of organism from initial spike (Pseudomonas aeruginosa; Day 1) | Log Change (P. aeruginosa), decrease in log 10 of organism from initial spike (Pseudomonas aeruginosa; Day 7) | Log Change (P. aeruginosa), decrease in log 10 of organism from initial spike (Pseudomonas aeruginosa; Day 14) | Log Change (P. aeruginosa), decrease in log 10 of organism from initial spike (Pseudomonas aeruginosa; Day 28)
>*4.34 log 10: Log Change (S aureus), decrease in log 10 of organism from initial spike ([4]; Day 1) | Log Change (S aureus), decrease in log 10 of organism from initial spike ([4]; Day 7) | Log Change (S aureus), decrease in log 10 of organism from initial spike ([4]; Day 14) | Log Change (S aureus), decrease in log 10 of organism from initial spike ([4]; Day 28)
